Several values for one entry are separate records, joined by “and”; a condition that tells them apart may be missing. Equal values may be shown once.
System: GRα mRNA levels in PBMC
Test: Fold change ratio of GRα mRNA levels in PBMC of VKH patients after two weeks of prednisone (GC) treatment, RT-qPCR
Format: in vivo, human
Details: for Fold change ratio of GR levels in PBMC: after two weeks of Prednisone treatment vs baseline, oral 1 mg/Kg/day, 1 mg/kg/day; for GRα mRNA fold change median / GRα mRNA fold change range: two weeks of systemic GC therapy vs baseline
Description: 1) Obtainment of a 10-100 ml blood sample—preferably collected in the morning by automatic aspiration (vacutainer®) or manual (disposable syringe) methods. As an alternative or complementarily, the affected tissue or cell type may be completely or partially removed in order to carry out measurements.
2) After obtaining the sample, peripheral mononuclear cells (PBMC) are procured by the Ficoll gradient method, where a hydrophilic polysaccharide allows separating blood components into plasma, PBMC and erythrocytes. Alternatively or complementarily, the isolation of specific cell sub-types, such as CD4+, CD14+, CD8+cells, among others, may be conducted using a strategy based on magnetic microbeads or cell sorting by flow cytometry.
3) Subsequently, total RNA is extracted (Life Technologies, Inc.) by the TRIZOL method. For the obtainment of cDNA, 0.5 to 2 μg RNA is used as a template. Reverse transcription is performed preferably with kit ImProm-II™ Reverse Transcription System (Promega): a reaction mixture is prepared with 0.5 to 2 μg RNA, 1 μL Random Hexamers, 4 μL 5× ImProm-II™ RT buffer up to a final 20 μL volume, which is then incubated at 70° C. for 5 minutes, 4° C. for 5 minutes, 25° C. for 5 minutes, 42° C. for 60 minutes and 25° C. for 5 minutes.
4) cDNA is amplified using primers specific for GRα isoform: 5′-[…]-3′ (sense, SEQ ID NO: 1) and 5′-[…]-3′ (antisense, SEQ ID NO: 2) that correspond to nucleotides 2158-2178 and 2616-2635 of GRα cDNA.
5) For the amplification, a cDNA polymerase is used, preferably, the enzyme Go Taq® Flexi DNA Polymerase (Promega), starting the reaction with an initial 5 minute incubation at 95° C., followed then by 30 cycles as detailed: 95° C. for 30 seconds, 60° C. for 30 seconds and 72° C. for 30 seconds. For quantification by Real-Time qPCR a fluorophore is used, using preferably SYBR Green as fluorophore. GR measurements are made in duplicate. Finally, the results are standardized according to the expression of 18s rDNA gene that codes for the 18s ribosomal subunit.
6) Repetition of GRα mRNA level assessment according to the described protocol is carried out two weeks after initiating GC treatment. An increase is observed in GRα expression in sensitive patients and a reduction of the same in resistant patients (median of 5.5 versus 0.7, respectively).
7) Calculation of fold change ratio in GRα mRNA levels between the initial assessment and a later assessment after 2 weeks of GC treatment. GR fold change ratio=GR mRNA-2 weeks/GR mRNA at baseline
The method described in the present invention has been assessed in a group of 21 patients with Vogt-Koyanagi-Harada (VKH) disease, a specific uveitis subtype.
Cases: 13 patients affected by VKH with an inadequate response to oral treatment with 1 mg/Kg/day prednisone, in two separate doses, ⅔ of the daily dose in the morning and ⅓ of the dose in the afternoon.
Controls: 8 patients affected by VKH with an adequate response to the oral treatment with 1 mg/Kg/day prednisone, in two separate doses, ⅔ of the daily dose in the morning and ⅓ of the dose in the afternoon.
An analysis was conducted on the fold change ratio of GR transcript expression two weeks after treatment initiation, in comparison with baseline levels (prior to treatment initiation), segregating in accordance with the clinical response during follow-up. To calculate this fold change ratio, an arithmetic operation is conducted, that consists in dividing the GR levels obtained two weeks after the treatment and the baseline or initial GR levels. GR fold change ratio=GR mRNA-2 weeks/GR mRNA at baseline

[1] = patients clinically sensitive to GC

**Q.** With C[C@]12C=CC(=O)C=C1CC[C@@H]1[C@@H]2C(=O)C[C@@]2(C)[C@H]1CC[C@]2(O)C(=O)CO [Prednisone, prednisone] as the compound, how does the “Fold change ratio of GR levels in PBMC” value (individual patients with Vogt-Koyanagi-Harada disease clinically Resistant to GC) read?
**A.** 0.667 and 0.225 and 0.243 and 0.841 and 0.759

**Q.** What about the “Fold change ratio of GR levels in PBMC” value (individual patients with Vogt-Koyanagi-Harada disease clinically Sensitive to GC) of the same compound?
**A.** 5.21 and 8.49 and 2.53 and 0.237 and 17.8 and 15 and 5.52

**Q.** And the “GRα mRNA fold change median” value [1]?
**A.** 5.5

**Q.** And the “GRα mRNA fold change range” value [1]?
**A.** 0.23-17.8

**Q.** What about the “GRα mRNA fold change median” value (patients resistant to GC) of the same compound?
**A.** 0.7

**Q.** What about the “GRα mRNA fold change range” value (patients resistant to GC) of the same compound?
**A.** 0.22-0.84
